Measured values published in ChEMBL document CHEMBL1124646, “Sulfur-containing 1,3-dialkylxanthine derivatives as selective antagonists at A1-adenosine receptors” (J Med Chem, 1989).
One block for each compound: values may come before it.

Experiments:
Adenosine A2 receptor [1] = target: T1, Adenosine A2 receptor (Rattus norvegicus, UniProt P29276+P30543); assay type: cell membranes, Membrane
[2] = target: Adenosine receptors; A1 & A2 (Rattus norvegicus) (UniProt P29276+P25099+P30543); assay: Inhibitory selectivity for A2 receptor in rat striatal membranes and A1 receptor in rat cortical membranes; assay type: cell membranes; conditions: Striatum, Membrane
Adenosine A2 receptor [3] = target: T1, Adenosine A2 receptor
Description: Inhibition of binding of [3H]5'-(N-ethylcarbamoyl)-adenosine to adenosine A2 receptor in rat striatal membranes

Adenosine receptor A1 [4] = target: T2, Adenosine receptor A1 (Rattus norvegicus, UniProt P25099); assay: Inhibition of binding of 1 nM [3H]N-6-(phenylisopropyl)adenosine to adenosine A1 receptor in rat cortical membranes; assay type: cell membranes, Membrane
T2 sequence (P25099 whole entry): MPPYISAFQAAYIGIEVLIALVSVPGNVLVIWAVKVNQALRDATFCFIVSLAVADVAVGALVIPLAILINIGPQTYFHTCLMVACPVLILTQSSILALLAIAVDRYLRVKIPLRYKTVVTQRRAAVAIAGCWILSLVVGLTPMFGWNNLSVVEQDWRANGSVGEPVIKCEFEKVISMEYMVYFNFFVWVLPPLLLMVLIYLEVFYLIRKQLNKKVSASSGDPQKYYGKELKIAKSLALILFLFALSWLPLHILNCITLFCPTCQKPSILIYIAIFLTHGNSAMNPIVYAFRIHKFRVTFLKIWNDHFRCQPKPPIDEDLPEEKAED

[5] = target: Adenosine receptors; A1 & A2 (Rattus norvegicus, UniProt P29276+P25099+P30543); assay: Inhibitory selectivity for A1 receptor in rat striatal membranes and Adenosine A1 receptor in rat cortical membranes; assay type: cell membranes, Striatum, Membrane
Adenosine receptor A1 [6] = target: T2, Adenosine receptor A1; assay: Inhibition of 1 nM [3H]N-6-(phenylisopropyl)adenosine binding to adenosine A1 receptors in rat cortical membranes; assay type: cell membranes, Membrane
Adenosine receptor A1 [7] = target: T2, Adenosine receptor A1; assay: Inhibition of 1 nM [3H]N-6-(phenylisopropyl)adenosine binding to A1 receptors in rat cortical membranes; assay type: cell membranes, Membrane
[8] = target: Adenosine receptor A1 (Rattus norvegicus); assay: Inhibitory selectivity for A1 receptor in rat striatal membranes and Adenosine A1 receptor in rat cortical membranes

SMILES: CCCn1c(=O)c2nc(-c3ccc(OCC(=O)NCCNC(=O)Cc4ccc(I)s4)cc3)[nH]c2n(CCC)c1=O
Ki (Adenosine A2 receptor [1]): 0.116 µM
Ratio [2]: 10.3

SMILES: Cn1c(=O)c2nc(-c3ccco3)[nH]c2n(C)c1=S
Ki (Adenosine receptor A1 [4]): 0.182 µM
Ki (Adenosine A2 receptor [3]): 4.45 µM

SMILES: Cn1c(=O)c2nc(-c3cccs3)[nH]c2n(C)c1=S
Ki (Adenosine A2 receptor [3]): 1.74 µM

SMILES: CCCn1c(=O)c2nc(-c3ccc(OCC(=O)NCCNC(=O)C(N)Cc4cccs4)cc3)[nH]c2n(CCC)c1=O.O=C(O)C(F)(F)F (stereo not drawn)
Ki [5]: 0.0013 µM

SMILES: Cn1c(=S)c2nc(-c3ccccc3)[nH]c2n(C)c1=O
Ki (Adenosine A2 receptor [3]): 11.3 µM

SMILES: CCCn1c(=O)c2nc(-c3ccc(OCC(=O)N(C)CCN(C)C)cc3)[nH]c2n(CCC)c1=S
Ki (Adenosine A2 receptor [3]): 0.0245 µM

SMILES: CCCn1c(=O)c2nc(-c3ccc(OCC(=O)NCCNC(=O)CCCCCCC(=O)NCc4cccs4)cc3)[nH]c2n(CCC)c1=O
Ki (Adenosine A2 receptor [1]): 0.63 µM
Ratio [2]: 85

SMILES: Br.Br.CCCn1c(=O)c2nc(-c3ccc(OCC(=O)NCCNC(=O)C(N)CCCCN)cc3)[nH]c2n(CCC)c1=O (stereo not drawn)
Ki (Adenosine receptor A1 [4]): 0.00087 µM
Ki (Adenosine A2 receptor [3]): 0.18 µM

SMILES: CCCn1c(=O)c2nc(-c3ccc(OCC(=O)NCCNC(=O)C(N)CCCCNC(=O)OCc4ccccc4)cc3)[nH]c2n(CCC)c1=O.O=C(O)C(F)(F)F (stereo not drawn)
Ki (Adenosine A2 receptor [1]): 0.191 µM
Ratio [2]: 30
Ki (Adenosine receptor A1 [6]): 0.0064 µM

SMILES: Cn1c(=O)c2nc(-c3cccs3)[nH]c2n(C)c1=O
Ki (Adenosine A2 receptor [3]): 1.63 µM

SMILES: CCCn1c(=O)c2nc(-c3ccc(OCC(=O)NCCNC(=O)C(CCCCNC(=O)OCc4ccccc4)NC(=O)OC(C)(C)C)cc3)[nH]c2n(CCC)c1=S (stereo not drawn)
Ki (Adenosine receptor A1 [4]): 0.084 µM
Ki (Adenosine A2 receptor [3]): 0.87 µM

SMILES: Cn1c(=O)c2nc(-c3ccoc3)[nH]c2n(C)c1=O
Ki (Adenosine receptor A1 [4]): 0.0724 µM
Ki (Adenosine A2 receptor [3]): 0.984 µM

SMILES: CCCn1c(=O)c2[nH]c(-c3ccc(OCC(=O)NCCNC(=O)C(CCCCNC(=O)OCc4ccccc4)NC(=O)OC(C)(C)C)cc3)nc2n(CCC)c1=O (stereo not drawn)
Ki (Adenosine receptor A1 [7]): 0.012 µM

SMILES: CCCn1c(=O)c2[nH]c(-c3ccc(OCC(=O)NCCNC(=O)[C@@H](Cc4cccs4)NC(=O)OC(C)(C)C)cc3)nc2n(CCC)c1=O
Ki (Adenosine receptor A1 [7]): 0.017 µM

SMILES: Cn1c(=O)c2nc(-c3ccsc3)[nH]c2n(C)c1=O
Ki (Adenosine A2 receptor [3]): 0.841 µM

SMILES: CCCn1c(=O)c2nc(-c3ccc(OCC(=O)NCCNC(=O)C(N)CCCCNC(=O)OCc4ccccc4)cc3)[nH]c2n(CCC)c1=S.O=C(O)C(F)(F)F (stereo not drawn)
Ki (Adenosine A2 receptor [1]): 0.322 µM
Ratio [2]: 36
Ki (Adenosine receptor A1 [6]): 0.0068 µM

SMILES: Cn1c(=O)c2nc(-c3ccco3)[nH]c2n(C)c1=O
Ki (Adenosine receptor A1 [4]): 0.35 µM
Ki (Adenosine A2 receptor [3]): 2.78 µM

SMILES: Cn1c(=O)c2nc(-c3ccccc3)[nH]c2n(C)c1=S
Ki (Adenosine receptor A1 [4]): 0.038 µM
Ki (Adenosine A2 receptor [3]): > 7 µM

The next lines start with the values.

Ki (Adenosine A2 receptor [1]): 8.98 µM
Ratio [2]: 44.4
SMILES: Cn1c(=S)c2nc(C3CCCC3)[nH]c2n(C)c1=O

Ki (Adenosine A2 receptor [3]): 3.51 µM
SMILES: CCn1c(=S)c2nc(-c3ccccc3)[nH]c2n(CC)c1=O

Ki (Adenosine A2 receptor [3]): 0.0263 µM
SMILES: CCCn1c(=O)c2nc(-c3ccc(OCC(=O)NCCN)cc3)[nH]c2n(CCC)c1=S

Ki (Adenosine A2 receptor [3]): > 5 µM
SMILES: CCCn1c(=O)c2nc(-c3cccs3)[nH]c2n(CCC)c1=S

Ki (Adenosine A2 receptor [3]): 3.36 µM
SMILES: CCCn1c(=S)c2nc(C3CCCC3)[nH]c2n(CCC)c1=O

Ki (Adenosine receptor A1 [4]): 0.037 µM
Ki (Adenosine A2 receptor [3]): 0.64 µM
SMILES: CCCn1c(=O)c2nc(-c3ccco3)[nH]c2n(CCC)c1=O

Ki (Adenosine A2 receptor [3]): 0.315 µM
SMILES: CCCn1c(=O)c2nc(-c3ccc(OCC(=O)O)cc3)[nH]c2n(CCC)c1=S

Ki (Adenosine A2 receptor [3]): > 5 µM
SMILES: CCCn1c(=O)c2nc(-c3ccc(OCC(=O)OCC)cc3)[nH]c2n(CCC)c1=S

Ki (Adenosine A2 receptor [1]): 11.5 µM
Ratio [2]: 285
SMILES: Cn1c(=S)c2nc(C3CCCC3)[nH]c2n(C)c1=S

Ki (Adenosine A2 receptor [3]): 0.147 µM
SMILES: CCCn1c(=O)c2nc(-c3ccc(OCC(=O)NCCNC(=O)Cc4cccs4)cc3)[nH]c2n(CCC)c1=O

Ki (Adenosine A2 receptor [3]): 0.0279 µM
SMILES: CCCn1c(=O)c2nc(-c3ccc(OCC(=O)NCCN(C)C)cc3)[nH]c2n(CCC)c1=S

Ki (Adenosine receptor A1 [4]): 0.0151 µM
SMILES: CCCn1c(=O)c2[nH]c(-c3ccc(OCC(=O)NCCNC)cc3)nc2n(CCC)c1=O

Ki (Adenosine A2 receptor [3]): 0.381 µM
SMILES: CCCn1c(=O)c2nc(-c3cccs3)[nH]c2n(CCC)c1=O

Ki (Adenosine receptor A1 [4]): 0.0161 µM
Ki (Adenosine A2 receptor [3]): 0.422 µM
SMILES: CCCn1c(=O)c2nc(-c3ccccc3)[nH]c2n(CCC)c1=S

Ki (Adenosine A2 receptor [1]): 2.78 µM
Ratio [2]: 572
SMILES: CCCn1c(=S)c2nc(C3CCCC3)[nH]c2n(CCC)c1=S

Ki (Adenosine A2 receptor [3]): > 5 µM
SMILES: CCCn1c(=O)c2nc(-c3ccc(OCC(=O)OCC)cc3)[nH]c2n(CCC)c1=O

Ki (Adenosine receptor A1 [4]): 0.013 µM
Ki (Adenosine A2 receptor [3]): 0.0468 µM
SMILES: Br.Br.CCCn1c(=O)c2nc(-c3ccc(OCC(=O)NCCNC(=O)C(N)CCCCN)cc3)[nH]c2n(CCC)c1=S (stereo not drawn)

Ki (Adenosine receptor A1 [4]): 0.032 µM
Ki (Adenosine A2 receptor [3]): 0.594 µM
SMILES: CCCn1c(=O)c2nc(-c3ccco3)[nH]c2n(CCC)c1=S

Ki (Adenosine A2 receptor [3]): 0.314 µM
SMILES: CCCn1c(=O)c2[nH]c(C3CCCC3)nc2n(CCC)c1=S

Ki (Adenosine A2 receptor [1]): 1.39 µM
Ratio [2]: 136
Ki (Adenosine receptor A1 [6]): 0.0102 µM
SMILES: Cn1c(=O)c2nc(C3CCCC3)[nH]c2n(C)c1=S

Ki (Adenosine A2 receptor [3]): 0.121 µM
SMILES: CCCn1c(=O)c2nc(-c3ccsc3)[nH]c2n(CCC)c1=O

Ki (Adenosine receptor A1 [4]): 0.0028 µM
Ki (Adenosine A2 receptor [3]): 0.00503 µM
SMILES: CCCn1c(=O)c2nc(-c3ccc(OCC(=O)NCCN(C)C)cc3)[nH]c2n(CCC)c1=O

Ki [8]: 0.0335 µM
SMILES: CCCn1c(=O)c2nc(-c3ccc(OCC(=O)NCCNC(=O)CCCCCCC(=O)ON4C(=O)CCC4=O)cc3)[nH]c2n(CCC)c1=S
